ChEMBL document CHEMBL1201862, “PubChem BioAssay data set” (2004)
Active and inactive are the calls of the source.

Tests used:
[1] = M. tuberculosis growth inhibition in 7H9, dose response, 7H9 media, purified and synthesized samples, set 3 (AID 504646); type: functional
[2] = biological target: Matrix metalloproteinase-14 (Homo sapiens, UniProt P50281); assay: SAR confirmation of uHTS hits for a small molecule inhibitors of MT1-MMP activation in a fluorescence assay.; type: functional
[3] = TNFa-induced NF-kB reporter signal decrease – HEK293 LMP1 reporter cells, dry powder, set 2, selectivity assay for EBV LMP1 NF-kB inhibitor project, dose response (AID 624369); type: functional
[4] = system: Streptococcus sp. 'group A'; assay: Streptococcus pyogenes SK(-)GAS viability under kanamycin – luminescence, BacTiterGlo, confirmation, counter-screen for streptokinase expression inhibitor project, dose response (AID 1900); type: functional, organism-based
[5] = system: Streptococcus; assay: GAS UMAA2166 growth inhibition – luminescence, BacTiterGlo, counter-screen for streptokinase expression inhibitor project, dose response (AID 1915); type: functional, organism-based;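 also: potency for reduction of bacterial viability or growth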
[6] = system: Vero; assay: cells; type: functional; conditions: Chlorocebus sabaeus
[7] = HGIII-sPLA2 enzyme inhibition potency – biochemical, QFRET, IC50, dose response (AID 743457);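 also: green fluorescence rise as the enzyme cleaves BODIPY PC-A2 in liposomes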
[8] = biological target: T1, Protein skinhead-1 (Caenorhabditis elegans, UniProt P34707); type: functional
T1 sequence (P34707 whole entry): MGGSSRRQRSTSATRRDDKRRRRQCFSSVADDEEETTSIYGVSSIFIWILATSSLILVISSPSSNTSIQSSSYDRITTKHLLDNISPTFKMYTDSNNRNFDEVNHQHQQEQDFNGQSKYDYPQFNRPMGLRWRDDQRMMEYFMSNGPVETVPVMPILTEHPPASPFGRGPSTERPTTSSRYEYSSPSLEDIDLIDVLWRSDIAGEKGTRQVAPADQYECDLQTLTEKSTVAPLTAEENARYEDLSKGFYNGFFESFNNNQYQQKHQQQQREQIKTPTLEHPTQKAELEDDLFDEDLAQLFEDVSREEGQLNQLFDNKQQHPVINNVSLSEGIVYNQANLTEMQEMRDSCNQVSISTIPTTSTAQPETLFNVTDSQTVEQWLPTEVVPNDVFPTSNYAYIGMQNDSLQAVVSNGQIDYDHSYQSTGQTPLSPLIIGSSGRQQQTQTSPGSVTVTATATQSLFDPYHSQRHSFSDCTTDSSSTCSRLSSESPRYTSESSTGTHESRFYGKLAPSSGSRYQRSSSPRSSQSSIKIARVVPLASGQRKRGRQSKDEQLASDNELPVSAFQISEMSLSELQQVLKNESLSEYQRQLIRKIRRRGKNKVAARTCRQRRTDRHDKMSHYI

[9] = biological target: T2, Interleukin-8 (Homo sapiens, UniProt P10145); assay: Dose Response confirmation of uHTS small molecule hits for cystic fibrosis induced NFkb Inhibitors in a TNFa-induced IL8 counterscreen.; type: functional; conditions: read-out: IC50_Mean
T2 sequence (P10145 whole entry): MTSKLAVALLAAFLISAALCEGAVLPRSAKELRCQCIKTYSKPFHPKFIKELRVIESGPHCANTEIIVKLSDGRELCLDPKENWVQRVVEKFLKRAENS

[10] = biological target: T2, Interleukin-8; assay: Dose Response confirmation of uHTS small molecule hits for cystic fibrosis induced NFkb Inhibitors in a PAF-induced IL8 counterscreen.; type: functional; conditions: read-out: IC50_Mean
[11] = blockers of HIV-1 envelope-mediated cell-cell fusion – cherry-pick, dose response (AID 652057); type: functional, cell-based
[12] = blockers of HIV-1 ZM109 envelope-driven cell-cell fusion – HeLa effector, CEM target cells, luciferase, cherry-pick, dose response (AID 652058); type: functional, cell-based;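 also: luciferase signal from HIV-1 Env mediated cell-cell fusion of effector and target cells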
[13] = off-target signal loss in HeLa-CEM21 co-culture – HeLa F-luc CTL cells, cherry-picked, counter-screen for HIV-1 Env fusion inhibitor project, dose response (AID 652040); type: functional, cell-based;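 also: potency for signal decrease marking cytotoxic or nonspecific inhibition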
[14] = HIV-1 AD8 envelope cell-cell fusion blockers – cherry-pick, dose response (AID 652062); type: functional, cell-based;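 also: luciferase signal from cell-cell fusion driven by HIV-1 clade B AD8 Env; potency is for inhibitors of fusion seen as a drop in luminescence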
[15] = system: Vero; assay: viability loss in Vero cells – cell-based, plate reader, cherry-pick samples, cytotoxicity control, dose response (AID 687020); type: functional; conditions: Chlorocebus sabaeus
[16] = system: A549; assay: viability loss in A549 cells – cell-based, plate reader, cherry-pick samples, cytotoxicity control, dose response (AID 687028); type: functional; conditions: Homo sapiens
[17] = biological target: Albumin (Bos taurus, UniProt P02769); assay: Counterscreen for inhibitors of T-cell receptor (TCR)-CD3 interaction: Fluorescence-based biochemical high throughput dose response assay to identify inhibitors of T-cell receptor (TCR)-CD3 interaction using a TAMRA-labeled BSA probe.; type: functional
[18] = biological target: Nonstructural protein 1 (Influenza A virus, UniProt Q194T2); type: functional, Influenza A virus (A/California/07/2009(H1N1))
[19] = ATP-based viability loss in HeLa cells – cell-based, CellTiter-Glo luminescence, dry powder, set 2, cytotoxicity control, dose response (AID 720593); type: functional

Nonstructural protein 1, sequence (Q194T2 whole entry): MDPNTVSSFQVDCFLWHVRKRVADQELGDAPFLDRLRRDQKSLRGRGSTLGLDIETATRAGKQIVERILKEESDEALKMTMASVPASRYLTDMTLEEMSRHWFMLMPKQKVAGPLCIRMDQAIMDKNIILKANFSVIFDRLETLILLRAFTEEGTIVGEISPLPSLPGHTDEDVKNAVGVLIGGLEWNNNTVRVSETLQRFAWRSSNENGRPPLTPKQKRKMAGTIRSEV
Albumin, sequence (P02769 whole entry): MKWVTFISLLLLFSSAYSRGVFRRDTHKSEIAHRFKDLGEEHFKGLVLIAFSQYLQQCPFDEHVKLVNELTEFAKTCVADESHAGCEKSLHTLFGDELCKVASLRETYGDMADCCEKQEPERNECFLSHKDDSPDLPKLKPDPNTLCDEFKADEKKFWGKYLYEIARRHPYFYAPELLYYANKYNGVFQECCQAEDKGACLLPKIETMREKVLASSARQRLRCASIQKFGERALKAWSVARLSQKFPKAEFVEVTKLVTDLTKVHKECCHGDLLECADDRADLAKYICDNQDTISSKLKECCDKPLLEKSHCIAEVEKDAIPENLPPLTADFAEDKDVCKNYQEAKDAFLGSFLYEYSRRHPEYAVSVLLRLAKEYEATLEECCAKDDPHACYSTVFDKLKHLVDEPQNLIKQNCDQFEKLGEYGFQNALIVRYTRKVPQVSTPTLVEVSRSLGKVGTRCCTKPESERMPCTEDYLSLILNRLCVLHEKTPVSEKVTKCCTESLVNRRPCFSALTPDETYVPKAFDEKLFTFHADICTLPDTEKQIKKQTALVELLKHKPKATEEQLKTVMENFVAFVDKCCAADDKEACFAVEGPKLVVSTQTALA

With `O=C(NCC1COc2ccccc2O1)C1CCC(CNc2c(N3CCCCC3)c(=O)c2=O)CC1` (centres undefined) the IC50 [1] was > 25 µM (active).

In the case of `CN1/C(=C/C=C/c2n(C)c3cc([N+](=O)[O-])c([N+](=O)[O-])cc3[n+]2C)C(C)(C)c2ccccc21`, the IC50 [2] is reported as 6.88 µM (active).

`O=C(C[C@@H]1C[C@H]2c3cc(NC(=O)c4ccc5c(c4)OCO5)ccc3O[C@H]2[C@H](CO)O1)NC1CCCCC1` gave an AbsAC35 [3] of 166.85 µM.

With `COc1ccc(C(=O)NC(=S)NNC(=O)[C@H]2C[C@@H]2c2ccccc2)cc1OC` the EC50 [4] was 1.36 µM (active), the EC50 [5] was 3.19 µM (active) and the CC50 [6] was > 25 µM (active). For the same compound, the IC50 [7] was 65.8 µM (inactive).

With `CC1(Cc2ccc(Cl)cc2)C(=O)Nc2ccc(-c3cccnc3)cc21` (centres undefined) the IC50 [8] was 19.5 µM (active), the IC50 [9] was 41.1 µM (inactive) and the IC50 [10] was 15.6 µM (inactive). For the same compound, the AC50 [11] was 1.96 µM (active), the AC50 [12] was 4.18 µM (active) and the AC50 [13] was 6.69 µM (active). For the same compound, the AC50 [14] was 3.3 µM (active).

For `Nc1nc2ccccc2n1Cc1ccc(Cl)c(Cl)c1`, the AC50 [15] was 1.28 µM (active) and the AC50 [16] was 2.82 µM (active).

In the case of `O=c1cc(-c2ccc(O)c(O)c2)oc2ccc3ccccc3c12`, the IC50 [17] is reported as > 94.2 µM (inactive).

For `c1ccc(-c2n[nH]c(-c3ccncc3)n2)nc1`, the IC50 [18] was 9.19 µM (active) and the AC50 [19] was > 52 µM (inactive).
